Experiments:
TLR2 = details: cited from earlier work
Excerpt: In recent years, a variety of lipopeptides have been designed and synthesized to exert adjuvant effects through activating TLR2 ([18]–[20]). […] The TLR2 activity of FSL-1 can reach 4 times that of MALP-2, while Pam2CSK4 is the ...

[1] = cited from earlier work
Excerpt: A number of studies have shown that lipopeptides have a significant mucosal adjuvant effect ([36]–[38]). MALP-2, the mycoplasma-derived lipopeptide, elevated the level of sIgA in BALF and vaginal lavages when intranasal co-administration with a soluble antigen ([25]).

BALB/c mice [2] = experiment: Intranasal immunization with OVA plus lipopeptide, specific antibody ELISA; details: for serum OVA-specific IgG2a levels / serum OVA-specific IgG response compared with Pam2CSK4: intranasal OVA plus lipopeptide; for serum OVA-specific IgG2a levels: n=5, Figure 4H; for serum OVA-specific IgA / serum OVA-specific IgG: intranasal OVA (10 μg) plus lipopeptide, day 0, 14, 28, sera 14 days after final immunization, compared with OVA alone; for serum OVA-specific IgA / serum OVA-specific IgG / vaginal OVA-specific IgG compared with Pam2CSK4 / serum OVA-specific IgG response compared with Pam2CSK4: n=5; for vaginal OVA-specific IgG compared with Pam2CSK4: vaginal wash, only adjuvanted with LP2-2 reached significance; for OVA-specific sIgA in BALF compared with Pam2CSK4: n=5, Figures 5J, K
Description: (§2) For OVA immunization, mice were divided into 7 groups randomly. Mice were the mice were anesthetized with pentobarbital sodium (50 mg/kg) and then intranasally immunized with PBS, OVA (10 μg), OVA (10 μg) plus one of the following lipopeptides: LP1-30, LP1-34, LP2-2 and LP2-3 or OVA plus Pam2CSK4 on day 0, 14, 28. […] For SARS-CoV-2 recombinant RBD (rRBD) immunization, mice were intranasally immunized at two-week intervals with PBS, rRBD, rRBD plus LP1-34, rRBD plus LP2-2 or rRBD plus Pam2CSK4. Two weeks post the final immunization, mice were sacrificed and sera, saliva, stomach homogenates, intestinal lavage fluid and vaginal wash were collected for further analysis.
(§3) Specific IgG and sIgA levels were determined by standard indirect ELISA. 96-well flat bottom plates were coated with OVA or rRBD and incubated overnight at 4°C. After blocking with 5% BSA in PBST, the diluted samples were added into the plates and incubated at 37°C for 1h. HRP-conjugated goat anti-mouse IgG, IgG1, IgG2a or IgA was used as a secondary antibody. TMB substrate solution was added each well and incubated about 5-10 min. Then, the reaction was ended by adding stop solution. Finally, the optical density was detected by at 450nm in a micro-plate reader (Thermo Scientific).

BALB/c mice [3] = experiment: Intranasal immunization with SARS-CoV-2 rRBD plus lipopeptide, specific antibody ELISA; details: for RBD-specific serum IgG / RBD-specific serum IgA: intranasal rRBD with or without lipopeptide; for RBD-specific serum IgG: n=5, Figure 8A; for RBD-specific serum IgA: n=5, Figure 8B; for RBD-specific serum IgG1 compared with rRBD alone group: n=5, Figure 8C
Description: as §2, §3

RBD-ACE2 interaction = experiment: SARS-CoV-2 neutralizing antibody detection (ELISA) after rRBD immunization; details: for rRBD-induced SARS-CoV-2 neutralizing antibody in sera (inhibition of RBD-ACE2 interaction): n=5, compared with rRBD alone group, Figures 9A, B
Description: For SARS-CoV-2 recombinant RBD (rRBD) immunization, mice were intranasally immunized at two-week intervals with PBS, rRBD, rRBD plus LP1-34, rRBD plus LP2-2 or rRBD plus Pam2CSK4. Two weeks post the final immunization, mice were sacrificed and sera, saliva, stomach homogenates, intestinal lavage fluid and vaginal wash were collected for further analysis.
SARS-CoV-2 neutralizing antibody detection was performed according to the manufacturer’s instruction (zybio). Briefly, the diluted sera, BALF or nasal wash mixed with HRP-conjugated RBD were added into the hACE2-coated plate, and then the plate was incubated at 37°C for 1h. After washing the plate, the TMB substrate was added and incubated at 37°C for 10min. Finally, the reaction was ended by adding the stop solution and the absorbance was measured with a micro-plate reader (Thermo Scientific) at 450 nm.

BALB/c mice [4] = assay type: in vivo, mouse; details: splenic lymphocytes, 10 μg/mL peptide, 48 h, n=5, Figure 6
SARS-CoV-2 pseudovirus = details: in vivo
BMDCs [5] = experiment: Cytokines assay (ELISA of BMDC supernatants); assay type: cell-based, mouse; details: lipopeptide 1 μg/mL, 48 h, n=3, Figure 3G
Description: (§1) Bone marrow-derived dendritic cells (BMDCs) were isolated using methods described previously ([26], [27]). Briefly, the cells were obtained by flushing the femurs of female BALB/C mice, then differentiated in RPMI 1640 medium containing 10% FBS and supplemented with IL-4 (10ng/mL) and GM-CSF (10ng/mL) for 7 days at 37°C in 5% CO2.
BMDCs (4 × 10^6 cells/well in 4mL RMPI-1640 medium) were stimulated with either synthetic lipopeptide (1 μg/mL) or PBS for 48 h. The expressions of IL-1β, TNF-α and IL-12 were analyzed by ELISA kit according to the manufacturer’s instructions.

BMDCs [6] = experiment: BMDC maturation surface markers by flow cytometry; assay type: cell-based, mouse; details: BMDCs stimulated 2 days, FACS, Figures 3A-D
Description: as §1
BMDCs were collected after being treated with each lipopeptidet for 48h. The expressions of surface markers on BMDCs were detected by FCM with a FACS Canto II (BD Biosciences). The cells were stained with CD11c-FITC (Biolegend, 117306), CD86-PerCP (Biolegend, 105026), CD80-APC (Biolegend, 104714) and CD40-PE (Biolegend, 124610) at 4°C for 30min. After washing with PBS, the expression of costimulatory molecules was detected by flow cytometer.

[7] = biological target: T1, HEK-Blue mTLR2 cells (TLR2) (Mus musculus, UniProt Q9QUN7); experiment: TLR2 signaling assay (SEAP activity, HEK-Blue detection); assay type: cell-based; details: 14 h at 37°C, read at 620 nm, n=3, Figure 2A
T1 construct: host or cells: HEK-Blue mTLR2 cells (HEK293-derived reporter line)
T1 sequence (Q9QUN7 25-784): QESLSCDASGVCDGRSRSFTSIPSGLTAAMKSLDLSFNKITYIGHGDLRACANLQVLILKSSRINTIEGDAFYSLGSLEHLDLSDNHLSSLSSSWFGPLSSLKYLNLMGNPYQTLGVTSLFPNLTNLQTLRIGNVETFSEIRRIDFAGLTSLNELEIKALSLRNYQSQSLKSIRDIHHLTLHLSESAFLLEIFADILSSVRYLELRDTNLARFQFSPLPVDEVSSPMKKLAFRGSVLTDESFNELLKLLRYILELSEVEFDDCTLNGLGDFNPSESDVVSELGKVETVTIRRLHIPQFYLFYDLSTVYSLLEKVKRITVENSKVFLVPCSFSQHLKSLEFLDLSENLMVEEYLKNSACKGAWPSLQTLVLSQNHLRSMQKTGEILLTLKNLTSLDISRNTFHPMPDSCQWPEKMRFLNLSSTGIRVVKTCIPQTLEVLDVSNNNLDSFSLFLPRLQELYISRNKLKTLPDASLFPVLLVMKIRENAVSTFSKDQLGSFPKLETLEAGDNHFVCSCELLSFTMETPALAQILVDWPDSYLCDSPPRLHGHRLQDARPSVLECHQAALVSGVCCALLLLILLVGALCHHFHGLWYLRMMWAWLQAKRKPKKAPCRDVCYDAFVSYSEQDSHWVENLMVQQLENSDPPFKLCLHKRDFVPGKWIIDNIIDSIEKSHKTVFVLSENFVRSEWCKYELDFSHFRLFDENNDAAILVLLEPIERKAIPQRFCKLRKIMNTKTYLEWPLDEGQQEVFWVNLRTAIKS
Description: HEK-Blue™ detection was prepared according to manufacturer’s instruction. Briefly, the lipopeptides were added into a flat-bottom 96-well plate (20μL per well) and endotoxin-free water was used as a negative control. Then HEK-Blue™ mTLR2 cells were suspended in HEK-Blue™ detection and added into the plate (180μL per well, 5×10^4 cells). After incubation at 37°C for 14h, the SEAP activity was measured by a spectrophotometer at 620nm.

BMDCs [8] = experiment: Cell viability assay (MTT); assay type: cell-based, mouse; details: test concentrations 10-200μg/mL, 48 h, n=3, Figure S3A
Description: The cell viability was analyzed by MTT assay. Briefly, BMDCs were cultured with gradient dilutions of each lipopeptide for 48 h. After that, 20 μL of a MTT solution (5 mg/ml) were added per well and incubated at 37°C for 4 h. Then, the mixture was removed from the well and 100 μL DMSO were added. The absorbance was detected at a wavelength of 570 nm. % surviving cells = Mean optical absorption of cells exposed to the lipopeptide/Mean optical absorption of control cells × 100.
as §1

For FSL-1, the “TLR2 activity of FSL-1 relative to that of MALP-2” value (TLR2) is listed as 4 times and the “EV71-specific IgG and IgA in serum, nasal washes, BALF, and feces compared with the control group” value ([1]; intranasal, inactivated EV71 vaccine plus FSL-1) is listed as “higher level”.

In the case of Pam2CSK4 [reference compound], the “serum OVA-specific IgG2a levels” value (BALB/c mice [2]) is given as “elevated”, the “TLR2 agonist potency rank among the four lipopeptides (FSL-1, FSL-2, MALP-2, Pam2CSK4)” value (TLR2) is given as “most potent TLR2 agonist” and the “RBD-specific serum IgG” value (BALB/c mice [3]) is given as “significantly improved”. The “RBD-specific serum IgA” value (BALB/c mice [3]) was “significantly improved”, the “RBD-specific serum IgG1 compared with rRBD alone group” value (BALB/c mice [3]) was “elevated” and the “RBD-specific serum IgG2a compared with rRBD alone group” value (BALB/c mice [3]; n=5, Figure 8D) was “elevated”. The “rRBD-induced SARS-CoV-2 neutralizing antibody in sera (inhibition of RBD-ACE2 interaction)” value (RBD-ACE2 interaction) was “significantly elevated”, the “IFN-γ-forming OVA257-264-specific CD8+ T cell response” value (BALB/c mice [4]) was “slightly elevated” and the “IFN-γ-forming OVA323-339-specific CD4+ T cell response” value (BALB/c mice [4]) was “slightly elevated”. For the same substance, the “SARS-CoV-2 pseudovirus neutralizing antibody titers in serum” value (SARS-CoV-2 pseudovirus) was “significantly augment”.

With “Pam2Cys-SLARRNDTN [LP1-30, novel synthetic lipopeptide]” the “levels of IL-12 from BMDCs compared with Pam2CSK4” value (BMDCs [5]) was “higher levels”, the “anti-lipopeptide IgG antibodies in sera” value (BALB/c mice [2]; OVA+LP1-30 group, ELISA, n=5, Figure S4) was “did not reach statistical significance” and the “serum OVA-specific IgA” value (BALB/c mice [2]) was “significantly increased”. For the same substance, the “serum OVA-specific IgG” value (BALB/c mice [2]) was “significantly increased”, the “vaginal OVA-specific IgG compared with Pam2CSK4” value (BALB/c mice [2]) was “higher level” and the “stimulating effect on costimulatory molecule expression of BMDCs compared with Pam2CSK4” value (BMDCs [6]) was “more potent stimulating effect”. The “SEAP activity compared with Pam2CSK4” value [7] was “more increased SEAP activity than Pam2CSK4”.

For “Pam2Cys-SEFQATYAP [LP2-3, novel synthetic lipopeptide]”, the “serum OVA-specific IgA” value (BALB/c mice [2]) was “significantly increased”, the “serum OVA-specific IgG” value (BALB/c mice [2]) was “significantly increased” and the “serum OVA-specific IgG response compared with Pam2CSK4” value (BALB/c mice [2]) was “more robust”. For the same substance, the “serum OVA-specific IgG2a levels” value (BALB/c mice [2]) was “elevated” and the “SEAP activity compared with Pam2CSK4” value [7] was “more increased SEAP activity than Pam2CSK4”.

For FSL-2, the “TLR2 activity of FSL-2 relative to that of FSL-1” value (TLR2) is given as 80%.

With “Pam2Cys-SEFAHPRHG [LP2-2, novel synthetic lipopeptide]” the “serum OVA-specific IgA” value (BALB/c mice [2]) was “significantly increased”, the “serum OVA-specific IgG” value (BALB/c mice [2]) was “significantly increased” and the “serum OVA-specific IgG response compared with Pam2CSK4” value (BALB/c mice [2]) was “more robust”. For the same substance, the “serum OVA-specific IgG2a levels” value (BALB/c mice [2]) was “elevated”, the “OVA-specific sIgA in BALF compared with Pam2CSK4” value (BALB/c mice [2]) was “higher level” and the “vaginal OVA-specific IgG compared with Pam2CSK4” value (BALB/c mice [2]) was “higher level”. For the same substance, the “SEAP activity compared with Pam2CSK4” value [7] was “more increased SEAP activity than Pam2CSK4”, the “RBD-specific serum IgG” value (BALB/c mice [3]) was “significantly improved” and the “RBD-specific serum IgA” value (BALB/c mice [3]) was “significantly improved”. For the same substance, the “RBD-specific serum IgG1 compared with rRBD alone group” value (BALB/c mice [3]) was “elevated”, the “RBD-specific serum IgG2a compared with rRBD alone group” value (BALB/c mice [3]; n=5, Figure 8D) was “elevated” and the “rRBD-induced SARS-CoV-2 neutralizing antibody in sera (inhibition of RBD-ACE2 interaction)” value (RBD-ACE2 interaction) was “significantly elevated”. The “SARS-CoV-2 pseudovirus neutralizing antibody titers in serum” value (SARS-CoV-2 pseudovirus) was “significantly augment”.

With “Pam2Cys-SKHANNTHA [LP1-14, novel synthetic lipopeptide]” the “SEAP activity compared with Pam2CSK4” value [7] was “more increased SEAP activity than Pam2CSK4” and the “cytotoxicity on BMDCs (MTT)” value (BMDCs [8]) was “slightly cytotoxic”.

In the case of “Pam2Cys-SHYAPLPDS [LP1-34, novel synthetic lipopeptide]”, the “levels of IL-12 from BMDCs compared with Pam2CSK4” value (BMDCs [5]) is reported as “higher levels”, the “serum OVA-specific IgA” value (BALB/c mice [2]) is reported as “significantly increased” and the “serum OVA-specific IgG” value (BALB/c mice [2]) is reported as “significantly increased”. For the same substance, the “OVA-specific sIgA in BALF compared with Pam2CSK4” value (BALB/c mice [2]) was “higher level”, the “vaginal OVA-specific IgG compared with Pam2CSK4” value (BALB/c mice [2]) was “higher level” and the “SEAP activity compared with Pam2CSK4” value [7] was “more increased SEAP activity than Pam2CSK4”. The “ability to enhance the level of RBD-specific mucosal sIgA and IgG compared with Pam2CSK4” value (BALB/c mice [3]; intranasal rRBD plus lipopeptide, n=5) was “stronger”, the “RBD-specific serum IgG” value (BALB/c mice [3]) was “significantly improved” and the “RBD-specific serum IgA” value (BALB/c mice [3]) was “significantly improved”. The “RBD-specific serum IgG1 compared with rRBD alone group” value (BALB/c mice [3]) was “elevated”, the “RBD-specific serum IgG2a compared with rRBD alone group” value (BALB/c mice [3]; n=5, Figure 8D) was “elevated” and the “rank of RBD-specific IgG2a response among LP1-34, LP2-2 and Pam2CSK4” value (BALB/c mice [3]; n=5, Figure 8D) was “highest”. For the same substance, the “ability of BALF and nasal wash to inhibit RBD interaction with ACE2” value (RBD-ACE2 interaction; n=5, Figures 9C, D) was “improved”, the “rRBD-induced SARS-CoV-2 neutralizing antibody in sera (inhibition of RBD-ACE2 interaction)” value (RBD-ACE2 interaction) was “significantly elevated” and the “SARS-CoV-2 pseudovirus neutralizing antibody titers in serum” value (SARS-CoV-2 pseudovirus) was “significantly augment”.

For MALP-2, the “sIgA in BALF and vaginal lavages” value ([1]; intranasal co-administration with a soluble antigen) is listed as “elevated”.

Reference: publication PMC8959576 (Frontiers in Immunology, 2022)
